Patent US20110230403A1, “GLYCOSIDE DERIVATIVES AND USES THEREOF” (NOVARTIS AG, priority 2008, published 2011)

Experiments:
human SGLT1 = molecular target: T1, human SGLT1 (Homo sapiens, UniProt P13866); test: hSGLT1 assay: analogous [14C]-AMG uptake in CHO-K1 or HEK293 cells expressing hSGLT1; assay type: cell-based; settings: n = 1-4, hSGLT1-transfected cells
T1 construct: expressed in transfected cells; host or cells: CHO-K1 or HEK293 cells
T1 sequence (P13866 1-664): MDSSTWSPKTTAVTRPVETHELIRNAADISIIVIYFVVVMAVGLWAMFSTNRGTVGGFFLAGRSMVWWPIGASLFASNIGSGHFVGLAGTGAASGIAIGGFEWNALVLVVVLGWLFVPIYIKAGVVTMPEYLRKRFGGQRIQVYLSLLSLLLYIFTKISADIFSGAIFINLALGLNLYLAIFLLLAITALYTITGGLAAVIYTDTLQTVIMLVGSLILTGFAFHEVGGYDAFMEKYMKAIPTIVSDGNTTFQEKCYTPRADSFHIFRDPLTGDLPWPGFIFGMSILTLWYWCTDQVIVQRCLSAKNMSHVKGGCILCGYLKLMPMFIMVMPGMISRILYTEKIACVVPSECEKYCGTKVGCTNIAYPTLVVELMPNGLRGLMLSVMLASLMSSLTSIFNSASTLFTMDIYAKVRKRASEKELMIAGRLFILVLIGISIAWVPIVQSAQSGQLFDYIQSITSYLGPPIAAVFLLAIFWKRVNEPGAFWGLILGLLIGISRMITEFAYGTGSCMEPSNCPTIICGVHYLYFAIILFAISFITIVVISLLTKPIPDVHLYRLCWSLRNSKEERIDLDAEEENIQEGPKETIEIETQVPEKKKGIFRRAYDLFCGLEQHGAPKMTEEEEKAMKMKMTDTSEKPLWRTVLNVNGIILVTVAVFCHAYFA
Protocol: To determine human SGLT1 inhibitory activity, an analogous test was set up in which the cDNA for hSGLTI (Genbank Ace. No. NM000343) instead of hSGLT2 cDNA is expressed in CHO-K1 or HEK293 cells. The uptake assay buffer in the case of the hSGLT1 assay contains 10 mM HEPES, 5 mM Tris, 140 mM NaCl, 2 mM KCl, 1 mM CaCl2, and 1 mM MgCl2, pH 7.4 containing 0.5 mM of α-methyl-D-glucopyranoside (AMG), 10 μM of [^14C]-α-methyl-D-glucopyranoside and different inhibitor concentrations.

[1] = molecular target: T2, human sodium glucose cotransporter 2 (Homo sapiens, UniProt P31639); test: SGLT-2 assay: 14C-AMG uptake in CHO-hSGLT2 or HEK293-hSGLT2 cells; assay type: cell-based; settings: n = 1-4, hSGLT2-transfected cells, read-out: SGLT2 IC50 nM (n = 1-4)
T2 construct: expressed in transfected cells; host or cells: CHO-K1 (ATCC CCL-61) or HEK293 (ATCC CRL-1573), stably transfected with pZeoSV expression vector
T2 sequence (P31639 1-672): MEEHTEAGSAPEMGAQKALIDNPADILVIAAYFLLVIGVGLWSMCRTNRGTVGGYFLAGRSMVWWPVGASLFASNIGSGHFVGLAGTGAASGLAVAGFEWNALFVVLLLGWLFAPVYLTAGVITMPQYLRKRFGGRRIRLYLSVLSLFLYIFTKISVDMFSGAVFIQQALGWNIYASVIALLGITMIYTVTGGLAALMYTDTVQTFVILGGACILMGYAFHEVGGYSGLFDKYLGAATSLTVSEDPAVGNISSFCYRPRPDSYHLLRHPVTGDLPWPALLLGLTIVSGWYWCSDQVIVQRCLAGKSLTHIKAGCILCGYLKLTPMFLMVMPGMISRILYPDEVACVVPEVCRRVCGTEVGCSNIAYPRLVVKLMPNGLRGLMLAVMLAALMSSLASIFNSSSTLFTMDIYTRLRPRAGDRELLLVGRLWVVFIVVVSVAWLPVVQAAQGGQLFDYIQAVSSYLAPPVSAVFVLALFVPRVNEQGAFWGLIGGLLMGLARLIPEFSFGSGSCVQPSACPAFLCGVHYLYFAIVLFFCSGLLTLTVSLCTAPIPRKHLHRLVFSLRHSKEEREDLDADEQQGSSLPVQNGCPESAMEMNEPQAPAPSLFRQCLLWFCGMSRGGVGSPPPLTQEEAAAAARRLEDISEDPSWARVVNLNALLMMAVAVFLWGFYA
Protocol: These cell lines transport 14 C-labelled alpha-methyl-glucopyranoside (14 C-AMG, Amersham) into the interior of the cell in sodium-dependent manner.
The SGLT-2 assay is carried out as follows: CHO-hSGLT2 cells are cultivated in Ham's F12 Medium (BioWhittaker) with 10% foetal calf serum and 250 μg/mL zeocin (Invitrogen), and HEK293-hSGLT2 cells are cultivated in DMEM medium with 10% foetal calf serum and 250 μg/mL zeocin (Invitrogen). The cells are detached from the culture flasks by washing twice with PBS and subsequently treating with trypsin/EDTA. After the addition of cell culture medium the cells are centrifuged, resuspended in culture medium and counted in a Casy cell counter. Then 40,000 cells per well are seeded into a white, 96-well plate coated with poly-D-Iysine and incubated overnight at 37° C., 5% CO2. The cells are washenwice with 250 μl of assay buffer (Hanks Balanced Salt Solution, 137 mM NaCl, 5.4 mM KCl, 2.8 mM CaCl2, 1.2 mM MgSO4 and 10 mM HEPES (pH 7.4), 50 μg/mL of gentamycin). 250 μl of assay buffer and 5 μl of test compound are then added to each well and the plate is incubated for a further 15 minutes in the incubator. 5 μl of 10% DMSO are used as the negative control. The reaction is started by adding 5 μl of 14 C-AMG (0.05 μCi) to each well. After 2 hours' incubation at 37° C., 5% CO2, the cells are washed again with 250 μl of PBS (200C) and then lysed by the addition of 25 μl of 0.1 N NaOH (5 min. at 37° C.). 200 μl of MicroScint20 (Packard) are added to each well and incubation is continued for a further 20 min at 37° C. After this incubation the radioactivity of the 14 C-AMG absorbed is measured in a Topcount (Packard) using a 14 C scintillation program.

| SMILES | IC50 (human SGLT1) [nM] | IC50 [1] [nM] |
| --- | --- | --- |
| CCOc1ccc(Cc2cc([C@@H]3O[C@H](CSc4cccc(C(=O)N(C)C)c4)[C@@H](O)[C@H](O)[C@H]3O)ccc2Cl)cc1 [Example 50, 3-{(2S,3S,4R,5R,6S)-6-[4-Chloro-3-(4-ethoxy-benzyl)-phenyl]-3,4,5-trihydroxy-tetrahydro-pyran-2-ylmethylsulfanyl}-N,N-dimethyl-benzamide] | < 50 | 8 |
| CCOc1ccc(Cc2cc([C@@H]3O[C@H](CSc4cccc(C(N)=O)c4)[C@@H](O)[C@H](O)[C@H]3O)ccc2Cl)cc1 [Example 78, 3-{(2S,3S,4R,5R,6S)-6-[4-Chloro-3-(4-ethoxy-benzyl)-phenyl]-3,4,5-trihydroxy-tetrahydro-pyran-2-ylmethylsulfanyl}-benzamide] | < 100 | 42 |
| CCOc1ccc(Cc2cc([C@@H]3O[C@H](CSc4cccc(NC(C)=O)c4)[C@@H](O)[C@H](O)[C@H]3O)ccc2Cl)cc1 [Example 80, N-(3-{(2S,3S,4R,5R,6S)-6-[4-Chloro-3-(4-ethoxy-benzyl)-phenyl]-3,4,5-trihydroxy-tetrahydro-pyran-2-ylmethylsulfanyl}-phenyl)-acetamide] | < 100 | 13 |

Results, then the compound that gave them:

| IC50 (human SGLT1) [nM] | IC50 [1] [nM] | SMILES |
| --- | --- | --- |
| < 50 | 3 | CCOc1ccc(Cc2cc([C@@H]3O[C@H](CSc4cc(C(=O)N5CCC5)ccc4F)[C@@H](O)[C@H](O)[C@H]3O)ccc2Cl)cc1 [Example 37, Azetidin-1-yl-(3-{(2S,3S,4R,5R,6S)-6-[4-chloro-3-(4-ethoxy-benzyl)-phenyl]-3,4,5-trihydroxy-tetrahydro-pyran-2-ylmethylsulfanyl}-4-fluoro-phenyl)-methanone] |
| < 50 | 13 | CCOc1ccc(Cc2cc([C@@H]3O[C@H](CSc4cccc(C(=O)NC)c4)[C@@H](O)[C@H](O)[C@H]3O)ccc2Cl)cc1 [Example 40, 3-{(2S,3S,4R,5R,6S)-6-[4-Chloro-3-(4-ethoxy-benzyl)-phenyl]-3,4,5-trihydroxy-tetrahydro-pyran-2-ylmethylsulfanyl}-N-methyl-benzamide] |
| < 50 | 14 | CCOc1ccc(Cc2cc([C@@H]3O[C@H](CSc4cccc(C(=O)N5CCCC5)c4)[C@@H](O)[C@H](O)[C@H]3O)ccc2Cl)cc1 [Example 47, (3-{(2S,3S,4R,5R,6S)-6-[4-Chloro-3-(4-ethoxy-benzyl)-phenyl]-3,4,5-trihydroxy-tetrahydro-pyran-2-ylmethylsulfanyl}-phenyl)-pyrrolidin-1 yl-methanone] |
